What was measured:
[1] = system: Formosan subterranean termites; assay: Vapor Toxicity Under Subterranean Conditions (soil and wood); assay type: in vivo, Coptotermes formosanus; details: for termites killed (vapor toxicity under subterranean conditions): 25 mg
Procedure: (§1) Formosan subterranean termites were collected from bucket traps placed in City Park,
(§2) New Orleans, La. Altogether five colonies designated 1314, 1559, 1732, 1743 and 1756 were used in the tests. After collection, the termites (primarily workers and soldiers) were transferred to plastic boxes with moist spruce slats. The boxes were stored in an incubator maintained at 28° C., 65% RH, and constant darkness. Termites were used within one month of their collection.
Vapor Toxicity Under Subterranean Conditions. This test was also conducted in the
Qorpak™ bottles. A 35 by 40 by 7 mm piece of moist spruce was placed at the bottom of the bottle and covered with 40 g fine-sifted black soil. One hundred workers were released into each bottle and allowed to tunnel under the soil and into the wood. After 3 days, a test chemical was applied to a filter paper and suspended from the cap-liner. The chemicals were tested at a rate of 25 mg. […] The test was conducted with termites from 3 colonies and replicated 3 times.

[2] = system: Formosan subterranean termites; assay: Assay for Contact Toxicity (treated filter paper in Petri dishes); assay type: in vivo, Coptotermes formosanus; details: 1 day; rate of 0.5 mg/liter
[3] = system: Formosan subterranean termites; assay: Assay for Vapor Toxicity (1 liter bottles); assay type: in vivo, Coptotermes formosanus
Procedure: as §1, §2
Assay for Vapor Toxicity. This test was conducted in 960 ml (approximately 1 liter) wide-mouth clear Qorpak™ (All-Pak, Inc.) bottles with PTFE lined caps. A 60 mm diameter glass Petri dish with a moist filter paper and 50 termite workers was placed at the bottom of each bottle. The test chemical was applied to a 1 cm diameter filter paper and suspended with an insect pin from the cap-liner. Each chemical was initially tested at 1 mg then at 0.1 and 0.5 mg. Since 0.1 and 0.5 mg doses caused very low and 100% mortality respectively, the final test was carried out at 0.25 mg. Each chemical was tested with different termite colonies and replicated three times. The bottles were placed in the incubator. Mortality was recorded after 1, 2 and 3 days by quickly taking the glass Petri dish with the termites out of the bottle (with a pair of long forceps) and replacing it after removing the dead workers.

[4] = system: carpenter ants; assay: Carpenter ant test in sealed jars; assay type: in vivo; details: within 24 hours; one drop (approximately 25 to 30 mg) on filter paper in sealed jar
Procedure: One drop (approximately 25 to 30 mg) of test compound (l-linaloo , l-carvone, and Styralyl Alcohol,) was applied to a filter paper within sealed jars (16 oz glass jar, 3½ inch diameter, 3⅞ inch high with plastic lids) containing ten carpenter ants per replicate with there being five replicates. Five negative controls with no test compounds were also run. The l-linalool, l-carvone, and styralyl alcohol each provided 100% mortality to the carpenter ants within 24 hours while the control produced 6% mortality over the same 24 hour period.

| Compound | effectiveness against termites in soil and wood [1] | mortality to carpenter ants [4] [%] | termites killed (vapor toxicity under subterranean conditions) ([1]; 2 days) [%] | other results |
| --- | --- | --- | --- | --- |
| C=C(C)C1CC=C(C)C(O)C1 (mixture of isomers) [carveol, reference compound] | totally ineffective | – | – | – |
| CC(O)c1ccccc1 (stereo not drawn) [Styralyl Alcohol, alpha-methyl benzyl alcohol] | – | 100 | – | termites killed (contact toxicity) [2]: 98%; termites killed (vapor toxicity under subterranean conditions) ([1]; time not given): 11%; termites killed (vapor toxicity) ([3]; 2 days, 0.25 mg/liter volume): 100% |
| CC(C)=CCCC(C)CC=O (stereo not drawn) [citronellal, reference compound] | totally ineffective | – | – | – |
| CC(C)=CCC/C(C)=C/CO [geraniol, reference compound] | totally ineffective | – | – | – |
| C=C[C@](C)(O)CCC=C(C)C [l-linalool] | – | 100 | 69 | termites killed (vapor toxicity) ([3]; 1 day, 0.5 mg): 100%; termites killed (vapor toxicity) ([3]; 3 days, 0.25 mg): 70% |
| Cc1ccc(C(C)C)cc1 [p-cymene, reference compound] | totally ineffective | – | – | – |
| CCC(C)(O)CCCC(C)C (stereo not drawn) [tetrahydrolinalool] | – | – | 53 | – |
| l-carvone | – | 100 | 57 | termites killed (vapor toxicity under subterranean conditions) ([1]; one day): 37%; termites killed (vapor toxicity) ([3]; 1 day, 0.5 mg): 100%; termites killed (vapor toxicity) ([3]; 3 days, 0.25 mg): 95% |

Reference: patent US20110207829A1, “CONTROL OF TERMITES, FIRE ANTS AND CARPENTER ANTS” (Bedoukian Research, Inc, priority 2008, published 2011)
